In ChEMBL document CHEMBL5352429, “Designed symmetrical β-hairpin peptides for treating multidrug-resistant salmonella typhimurium infections” (Eur J Med Chem, 2022):
Values after ≈ are worked out from the molar mass of the structure shown. Active and inactive are the calls of the source. The rule behind the calls is not given here. Peptide text beside a SMILES is read from it.

Columns and labels:
RAW264.7 [1] = assay: Anti-inflammatory activity in mouse RAW264.7 cells assessed as inhibition of LPS-induced iNOS mRNA expression at 15 ug/ml preincubated with compound for 30 mins followed by LPS stimulation and measured after 4 hrs by RT-PCR analysis; assay type: functional, cell-based; conditions: dose 15.0 µg/ml, time 4.5 hrs
Salmonella typhimurium [2] = assay: Antibacterial activity against Salmonella typhimurium DT104 assessed as reduction in TNF-alpha mRNA level in ileum at 20 mg/kg, ip administered for 3 days and measured on day 7 by RT-PCR analysis; assay type: functional, organism-based; conditions: Salmonella enterica subsp. enterica serovar Typhimurium, time 7.0 day
RAW264.7 [3] = assay: Anti-inflammatory activity in mouse RAW264.7 cells assessed as inhibition of LPS-induced IL-8 mRNA expression at 15 ug/ml preincubated with compound for 30 mins followed by LPS stimulation and measured after 4 hrs by RT-PCR analysis; assay type: functional, cell-based; conditions: dose 15.0 µg/ml, time 4.5 hrs
Salmonella typhimurium [4] = assay: Antibacterial activity against Salmonella typhimurium DT104 assessed as reduction in IL-15 mRNA level in ileum at 20 mg/kg, ip administered for 3 days and measured on day 7 by RT-PCR analysis; assay type: functional, organism-based; conditions: Salmonella enterica subsp. enterica serovar Typhimurium, time 7.0 day
Salmonella typhimurium [5] = assay: Antibacterial activity against Salmonella typhimurium DT104 assessed as reduction in IL-6 mRNA level in ileum at 20 mg/kg, ip administered for 3 days and measured on day 7 by RT-PCR analysis; assay type: functional, organism-based; conditions: Salmonella enterica subsp. enterica serovar Typhimurium, time 7.0 day
Salmonella typhimurium [6] = assay: Antibacterial activity against Salmonella typhimurium DT104 infected in mouse RAW264.7 cells assessed as log reduction in bacterial colony count at 1 times of MIC measured after 90 mins by MH agar based serial dilution method; assay type: functional, Salmonella enterica subsp. enterica serovar Typhimurium; conditions: 1.5 h
Salmonella typhimurium [7] = assay: Antibacterial activity against Salmonella typhimurium DT104 in the presence of NaCl by MH broth based assay; assay type: functional, Salmonella enterica subsp. enterica serovar Typhimurium; conditions: Salmonella enterica
[8] = Cytotoxicity against mouse RAW264.7 cells infected with Salmonella typhimurium DT104 assessed as cell viability at 1 times of MIC measured at 180 min by MTT assay; assay type: toxicity, cell-based; conditions: RAW264.7 cells infected with Salmonella typhimurium DT104, read-out: Activity
Salmonella paratyphi = assay: Antibacterial activity against Salmonella paratyphi A CICC 21501 incubated overnight by standard microtiter dilution method; assay type: functional, Salmonella enterica subsp. enterica serovar Paratyphi A; conditions: Salmonella enterica
Salmonella typhimurium [9] = assay: Antibacterial activity against Salmonella typhimurium DT104 infected in ICR mouse model assessed as body weight gain at 2 mg/kg, ip administered for 3 days and measured from day 4 to day 7; assay type: functional, organism-based; conditions: Salmonella enterica subsp. enterica serovar Typhimurium, time 7.0 day
Salmonella typhimurium [10] = assay: Antibacterial activity against Salmonella typhimurium DT104 assessed as reduction in TNF-alpha production in serum at 20 mg/kg, ip administered for 3 days and measured on day 7; assay type: functional, organism-based; conditions: Salmonella enterica subsp. enterica serovar Typhimurium, time 7.0 day
RAW264.7 [11] = assay: Anti-inflammatory activity in mouse RAW264.7 cells assessed as inhibition of LPS-induced IL-1beta mRNA expression at 15 ug/ml preincubated with compound for 30 mins followed by LPS stimulation and measured after 4 hrs by RT-PCR analysis; assay type: functional, cell-based; conditions: dose 15.0 µg/ml, time 4.5 hrs
Salmonella typhimurium [12] = assay: Antibacterial activity against Salmonella typhimurium DT104 infected in ICR mouse model assessed as alleviation of villi shortening at 20 mg/kg, ip administered for 3 days and measured on day 7 by H&E staining based analysis; assay type: functional, organism-based; conditions: Salmonella enterica subsp. enterica serovar Typhimurium, time 7.0 day
Salmonella typhimurium [13] = assay: Antibacterial activity against Salmonella typhimurium DT104 assessed as reduction in IL-8 production in serum at 20 mg/kg, ip administered for 3 days and measured on day 7; assay type: functional, organism-based; conditions: Salmonella enterica subsp. enterica serovar Typhimurium, time 7.0 day
Salmonella typhimurium [14] = assay: Antibacterial activity against multi-drug resistant Salmonella typhimurium DT104 assessed as inhibition of bacterial growth measured upto 120 mins by MH agar based serial dilution method; assay type: functional, organism-based; conditions: Salmonella enterica subsp. enterica serovar Typhimurium
[15] = Hemolytic activity in human Red blood cells assessed as hemolysis at 128 ug/ml incubated for 1 hrs by absorbance based microplate reader analysis relative to control; assay type: toxicity, cell-based, Erythrocyte; conditions: red blood cells (erythrocytes), at 128 µg/mL, read-out: Activity
Cell membrane [16] = assay: Disruption of membrane integrity in Salmonella typhimurium DT104 assessed as increase in red fluorescence at 1 times of MIC incubated for 60 mins by PI and SYTO9 staining based confocal laser scanning microscopic analysis; assay type: subcellular; conditions: Salmonella enterica subsp. enterica serovar Typhimurium
Salmonella typhimurium [17] = assay: Antibacterial activity against Salmonella typhimurium DT104 in the presence of CaCl2 by MH broth based assay; assay type: functional, Salmonella enterica subsp. enterica serovar Typhimurium; conditions: Salmonella enterica
[18] = system: Salmonella enterica subsp. enterica serovar Paratyphi B; assay: Antibacterial activity against Salmonella paratyphi B CICC 21495 incubated overnight by standard microtiter dilution method; assay type: functional
Cell membrane [19] = assay: Induction of membrane damage in Salmonella typhimurium DT104 assessed as cytoplasmic outflow at 1 times of MIC incubated for 15 mins by confocal laser scanning microscopic analysis; assay type: subcellular; conditions: Salmonella enterica subsp. enterica serovar Typhimurium
Salmonella typhimurium [20] = assay: Antibacterial activity against Salmonella typhimurium DT104 infected in ICR mouse model assessed as reduction in bacterial translocation to liver at 2 mg/kg, ip administered for 3 days and measured on day 7 by serial dilution method; assay type: functional, organism-based; conditions: Salmonella enterica subsp. enterica serovar Typhimurium, time 7.0 day
[21] = Antibacterial activity against Salmonella wandsworth CICC 21504 incubated overnight by standard microtiter dilution method; assay type: functional, Salmonella enterica subsp. enterica serovar Wandsworth; conditions: Salmonella enterica
Cell membrane [22] = assay: Disruption of membrane integrity in Salmonella typhimurium DT104 assessed as increase in fluorescence intensity at 0.5 to 2 times of MIC incubated for 15 mins by PI staining based flow cytometric analysis; assay type: subcellular; conditions: Salmonella enterica subsp. enterica serovar Typhimurium
Salmonella typhimurium [23] = assay: Antibacterial activity against Salmonella typhimurium DT104 in the presence of KCl by MH broth based assay; assay type: functional, Salmonella enterica subsp. enterica serovar Typhimurium; conditions: Salmonella enterica
Salmonella typhimurium [24] = assay: Antibacterial activity against Salmonella typhimurium DT104 ATCC 700408 incubated overnight by standard microtiter dilution method; assay type: functional, Salmonella enterica subsp. enterica serovar Typhimurium; conditions: Salmonella enterica
Cell membrane [25] = assay: Induction of membrane damage in Salmonella typhimurium DT104 assessed as cytoplasmic outflow at 1 times of MIC incubated for 60 mins by transmission electron microscopic analysis; assay type: subcellular; conditions: Salmonella enterica subsp. enterica serovar Typhimurium
Salmonella typhimurium [26] = assay: Antibacterial activity against Salmonella typhimurium DT104 assessed as increase in ZO-2 mRNA level in colon at 20 mg/kg, ip administered for 3 days and measured on day 7 by RT-PCR analysis; assay type: functional, organism-based; conditions: Salmonella enterica subsp. enterica serovar Typhimurium, time 7.0 day
Salmonella typhimurium [27] = assay: Antibacterial activity against Salmonella typhimurium DT104 infected in ICR mouse model assessed as alleviation of intestinal mucosal damage at 20 mg/kg, ip administered for 3 days and measured on day 7 by H&E staining based analysis; assay type: functional, organism-based; conditions: Salmonella enterica subsp. enterica serovar Typhimurium, time 7.0 day
Cell membrane [28] = assay: Induction of membrane damage in Salmonella typhimurium DT104 assessed as membrane stunting at 1 times of MIC incubated for 60 mins by atomic force microscopic analysis; assay type: subcellular; conditions: Salmonella enterica subsp. enterica serovar Typhimurium
Salmonella typhimurium [29] = assay: Antibacterial activity against Salmonella typhimurium DT104 in the presence 50% inactivated mouse serum by MH broth based assay; assay type: functional, Salmonella enterica subsp. enterica serovar Typhimurium; conditions: Salmonella enterica
Salmonella typhimurium [30] = assay: Antibacterial activity against Salmonella typhimurium DT104 assessed as reduction in IL-1beta production in serum at 20 mg/kg, ip administered for 3 days and measured on day 7; assay type: functional, organism-based; conditions: Salmonella enterica subsp. enterica serovar Typhimurium, time 7.0 day
Salmonella typhimurium [31] = assay: Antibacterial activity against Salmonella typhimurium CICC 21913 incubated overnight by standard microtiter dilution method; assay type: functional, Salmonella enterica subsp. enterica serovar Typhimurium; conditions: Salmonella enterica
[32] = Antibacterial activity against Salmonella enterica subsp. enterica serovar Choleraesuis ATCC 13312 incubated overnight by standard microtiter dilution method; assay type: functional
Salmonella enteritidis = assay: Antibacterial activity against Salmonella enteritidis CICC 21527 incubated overnight by standard microtiter dilution method; assay type: functional, Salmonella enterica subsp. enterica serovar Enteritidis; conditions: Salmonella enterica
Salmonella typhimurium [33] = assay: Antibacterial activity against Salmonella typhimurium DT104 infected in ICR mouse model at 2 mg/kg, ip administered for 3 days and measured on day 7; assay type: functional, organism-based; conditions: Salmonella enterica subsp. enterica serovar Typhimurium, time 7.0 day
Cell membrane [34] = assay: Induction of membrane damage in Salmonella typhimurium DT104 assessed as membrane creping at 1 times of MIC incubated for 60 mins by atomic force microscopic analysis; assay type: subcellular; conditions: Salmonella enterica subsp. enterica serovar Typhimurium

C[C@@H](O)[C@H](NC(=O)[C@H](CS)NC(=O)[C@H](CCCCN)NC(=O)[C@H](Cc1c[nH]c2ccccc12)NC(=O)[C@H](CCCCN)NC(=O)[C@@H](N)Cc1c[nH]c2ccccc12)C(=O)N[C@@H](CCCCN)C(=O)N[C@@H](CO)C(=O)NCC(=O)N[C@@H](CS)C(=O)N[C@@H](CCCCN)C(=O)N[C@@H](Cc1c[nH]c2ccccc12)C(=O)N[C@@H](CCCCN)C(=O)N[C@@H](Cc1c[nH]c2ccccc12)C(N)=O (H-WKWKCTKSGCKWKW-NH2)
inhibition (RAW264.7 [1]): Active | Activity (Salmonella typhimurium [2]): Active | inhibition (RAW264.7 [3]): Active | Activity (Salmonella typhimurium [4]): Active | Activity (Salmonella typhimurium [5]): Active | log(activity) (Salmonella typhimurium [6]): 3 | MIC (Salmonella typhimurium [7]): 4 µg/mL | viability at 3 h, 1 times of MIC [8]: > 90% | MIC (Salmonella paratyphi): 8 µg/mL (≈ 4.31 µM) | Activity (Salmonella typhimurium [9]): Active | Activity (Salmonella typhimurium [10]): Active | inhibition (RAW264.7 [11]): Active | Activity (Salmonella typhimurium [12]): Active | Activity (Salmonella typhimurium [13]): Active | Activity (Salmonella typhimurium [14]): Dose-Dependent Effect | hemolysis at 1 h, 128 ug/ml [15]: < 10% | Activity (Cell membrane [16]): Active | MIC (Salmonella typhimurium [17]): 8 µg/mL | MIC [18]: 1 µg/mL (≈ 0.539 µM) | Activity (Cell membrane [19]): Active | Activity (Salmonella typhimurium [20]): Active | MIC [21]: 8 µg/mL (≈ 4.31 µM) | Activity (Cell membrane [22]): Active | MIC (Salmonella typhimurium [23]): 8 µg/mL | MIC (Salmonella typhimurium [24]): 4 µg/mL (≈ 2.16 µM) | Activity (Cell membrane [25]): Active | Activity (Salmonella typhimurium [26]): Active | Activity (Salmonella typhimurium [27]): Active | Activity (Cell membrane [28]): Active | MIC (Salmonella typhimurium [29]): 32 µg/mL (≈ 17.3 µM) | Activity (Salmonella typhimurium [30]): Active | MIC (Salmonella typhimurium [31]): 8 µg/mL (≈ 4.31 µM) | MIC [32]: 1 µg/mL (≈ 0.539 µM) | MIC (Salmonella enteritidis): 8 µg/mL (≈ 4.31 µM) | Activity (Salmonella typhimurium [33]): Active | Activity (Cell membrane [34]): Active
